Assay results taken from PubChem BioAssay (NCI).
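Values below derive from 48-hour exposures of cells grown in 96-well plates, with endpoints linearly interpolated between the two concentrations bracketing the appropriate inhibition level. TGI marks complete inhibition of growth.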

Columns and labels:
Test in all cases: NCI tumour cell line growth inhibition, 48 h
[1] = test system: DLD-1 colon
[2] = test system: DMS 114 small cell lung
[3] = test system: LXFL 529 NSCLC
[4] = test system: HOP-18 NSCLC
[5] = test system: M19-MEL melanoma
[6] = test system: RXF-631 renal
[7] = test system: SN12K1 renal
[8] = test system: XF 498 CNS
[9] = test system: SNB-78 CNS
[10] = test system: P388 leukemia
[11] = test system: P388/ADR leukemia

Compound | TGI [1] [µM] | TGI [2] [µM] | TGI [3] [µM] | TGI [4] [µM] | TGI [5] [µM] | TGI [6] [µM] | TGI [7] [µM] | TGI [8] [µM] | TGI [9] [µM] | TGI [10] [µM] | TGI [11] [µM]
COC(=O)c1ccc(C=C(C#N)C#N)cc1 | 47.9 | 49.4 | 37.4 | > 100 | 75.4 | > 100 |  |  |  |  | 
CC(C)=CCC/C(C)=C/CCC1(C)C=Cc2c(c3ccccc3oc2=O)O1 (configuration not stated) | 28.5 | 29.8 |  | 32.6 | 31.4 |  | 30.7 | 29.4 | > 92.8 | 52.6 | > 62.6
CN(C)C(F)=PC(F)(F)F (configuration not stated) | > 100 | > 100 | > 100 | > 100 | > 100 |  |  | > 100 | > 100 |  | 
COc1cc(-c2cc(=O)c3ccccc3[nH]2)cc(OC)c1OC | > 75 | > 75 | > 75 |  | > 75 |  |  |  | > 75 |  | 
CSC(=N)N1N=C2/C(=C/c3ccccc3)CCC[C@H]2[C@H]1c1ccccc1 | 14.5 | 7.83 | 16.7 | 14.3 |  |  |  | 23.5 | 34.6 |  | 
CC(C)N(C(=O)C12C3C4C1C1C2C3C41C(=O)N(C(C)C)C(C)C)C(C)C (configuration not stated) | > 50 | > 50 | > 50 |  | > 50 | > 50 |  | > 50 | > 50 |  | 
Cc1c(C2=NN=C(N=Nc3c(O)cccc3O)/C2=C/c2ccccc2)c(=O)n(-c2ccccc2)n1C | > 100 | > 100 |  | > 100 | > 100 |  | > 100 | > 100 | > 100 | > 100 | > 100
C/C(N=NS(=O)(=O)c1ccc(C)cc1)=C1\C=CC=CN1O | > 100 | > 100 | > 100 | > 100 | > 100 | > 100 |  | > 100 | > 100 |  | 
NC(CCCCNCc1ccccc1O)C(=O)O (configuration not stated) | > 100 | > 100 | > 100 | > 100 | > 100 |  |  |  | > 100 |  | 
CSc1ccc2c(cc1=O)C(NC(=O)c1ccc(C#N)cc1)CCc1cc(O)c(O)c(O)c1-2 (configuration not stated) | 70.2 | 44.9 | 44.4 |  | 39 | > 100 |  | 89.2 | > 100 |  | 
CCc1ccccc1NC(=O)CC1NC(=O)CS1 (configuration not stated) | > 100 | > 100 | > 100 | > 100 | > 100 | > 100 |  | > 100 | > 100 |  | 
Nc1nc2ncn(CC(O)CO)c2c(=O)[nH]1 (configuration not stated) | > 100 | > 100 | > 100 | > 100 | > 100 | > 100 |  |  | > 100 |  | 
O=c1ccn(/C=C/C(O)C(O)CO)c(=O)[nH]1 (configuration not stated) | > 100 | > 100 | > 100 | > 100 | > 100 | > 100 |  | > 100 | > 100 |  | 
O=C(N/N=C(\C1=Nc2ccc(Cl)cc2NC1O)C(O)/C=C/c1ccccc1)c1ccncc1 (configuration not stated) | > 100 | > 100 | > 100 |  | > 100 |  |  | > 100 | > 100 |  | 
COC(=O)CCC(NC(=S)N/N=C(\C)c1cnccn1)C(=O)OC (configuration not stated) | > 100 | 54.2 | > 100 | > 100 | > 100 | > 100 |  | > 100 | > 100 |  | 
Oc1cccnc1/C=N/OCc1ccccc1 | > 100 | > 100 | > 100 |  | > 100 |  |  | > 100 | > 100 |  | 
COCCOCOC(C)(C)[C@H](CCO)O[Si](c1ccccc1)(c1ccccc1)C(C)(C)C | 22.4 |  | 21.6 | 31.9 | 26.9 | 21.7 |  | 13.5 | 35.1 |  | 
CS(=O)(=O)C1(Br)S(=O)(=O)OCCOS1(=O)=O | > 100 | > 100 | > 100 |  | > 100 |  |  | > 100 | > 100 |  | 
O=C(Nc1nc2ncn(CCO)c2c(=O)[nH]1)c1ccccc1 | > 100 | > 100 | > 100 | > 100 | > 100 |  |  |  | > 100 |  | 
